The results in this text go back to ChEMBL document CHEMBL4715869, “N-(Pyrimidin-2-yl)-1,2,3,4-tetrahydroisoquinolin-6-amine Derivatives as Selective Janus Kinase 2 Inhibitors for the Treatment of Myeloproliferative Neoplasms” (J Med Chem, 2020).

Test [1] deals with Receptor-type tyrosine-protein kinase FLT3 (Homo sapiens), P36888 [UNDEFINED MUTATION]. Kind of test: Inhibition of FLT3 ITD mutant in human MOLM13 cells assessed as residual activity at 100 nM relative to control. The test is classed as cell-based. The settings on record: MOLM-13.
Test [2] in a line: Inhibition of JAK2 V617F mutant in mouse BaF3 cells assessed as reduction in cell viability incubated for 72 hrs by MTT assay. A general note: Tetrazolium assays rely on reduction of a dye to a coloured formazan, in cell work by metabolically active cells.
A further test deals with SET-2. The test can be described thus: Antitumor activity against human SET2 cells xenografted in NOD/SCID mouse assessed as tumor growth inhibition at 60 mg/kg, po qd administered for 16 days and measured every 2 days relative to control. The settings on record: SET-2, po, 384 h, time 16 day, read-out: TGI. The test is classed as functional. (Xenograft models place foreign cells or tissue in a host animal.)

The next test deals with BaF3. Kind of test: Antitumor activity against mouse BAF3 cells harboring JAK2 V617F mutant implanted in Balb/c mouse assessed as decrease in liver weight at 60 mg/kg, po qd administered starting from day 4 to 20 and measured on day 25 relative to control. It counts as functional. Also on record: scale not given: the % may be the effect or the level left. The settings on record: time 21 day.

Another test is filed under the species Homo sapiens. The test can be described thus: Selectivity index, ratio of IC50 for inhibition of FLT3 ITD mutant in human MOLM13 cells to IC50 for inhibition of JAK2 V617F mutant in human SET-2 cells. It counts as cell-based.
The target of test [3] is Tyrosine-protein kinase JAK1 (Homo sapiens, UniProt P23458). The test can be described thus: Inhibition of human JAK1 (866 to end residues) using GEEPLYWSFPAKKK as substrate after 40 mins by [gamma-33ATP] radiometric assay.
In test [4] the target is Tyrosine-protein kinase JAK2 (Homo sapiens, UniProt O60674). The test can be described thus: Inhibition of recombinant human JAK2 (808 to end residues) KTFCGTPEYLAPEVRREPRILSEEEQEMFRDFDYIADWC as substrate measured after 40 mins in presence of [gamm33P]ATP by scintillation counting method.
Test [5] has as its target T1, Tyrosine-protein kinase JAK3 (Homo sapiens, UniProt P52333).
T1 sequence (P52333 whole entry): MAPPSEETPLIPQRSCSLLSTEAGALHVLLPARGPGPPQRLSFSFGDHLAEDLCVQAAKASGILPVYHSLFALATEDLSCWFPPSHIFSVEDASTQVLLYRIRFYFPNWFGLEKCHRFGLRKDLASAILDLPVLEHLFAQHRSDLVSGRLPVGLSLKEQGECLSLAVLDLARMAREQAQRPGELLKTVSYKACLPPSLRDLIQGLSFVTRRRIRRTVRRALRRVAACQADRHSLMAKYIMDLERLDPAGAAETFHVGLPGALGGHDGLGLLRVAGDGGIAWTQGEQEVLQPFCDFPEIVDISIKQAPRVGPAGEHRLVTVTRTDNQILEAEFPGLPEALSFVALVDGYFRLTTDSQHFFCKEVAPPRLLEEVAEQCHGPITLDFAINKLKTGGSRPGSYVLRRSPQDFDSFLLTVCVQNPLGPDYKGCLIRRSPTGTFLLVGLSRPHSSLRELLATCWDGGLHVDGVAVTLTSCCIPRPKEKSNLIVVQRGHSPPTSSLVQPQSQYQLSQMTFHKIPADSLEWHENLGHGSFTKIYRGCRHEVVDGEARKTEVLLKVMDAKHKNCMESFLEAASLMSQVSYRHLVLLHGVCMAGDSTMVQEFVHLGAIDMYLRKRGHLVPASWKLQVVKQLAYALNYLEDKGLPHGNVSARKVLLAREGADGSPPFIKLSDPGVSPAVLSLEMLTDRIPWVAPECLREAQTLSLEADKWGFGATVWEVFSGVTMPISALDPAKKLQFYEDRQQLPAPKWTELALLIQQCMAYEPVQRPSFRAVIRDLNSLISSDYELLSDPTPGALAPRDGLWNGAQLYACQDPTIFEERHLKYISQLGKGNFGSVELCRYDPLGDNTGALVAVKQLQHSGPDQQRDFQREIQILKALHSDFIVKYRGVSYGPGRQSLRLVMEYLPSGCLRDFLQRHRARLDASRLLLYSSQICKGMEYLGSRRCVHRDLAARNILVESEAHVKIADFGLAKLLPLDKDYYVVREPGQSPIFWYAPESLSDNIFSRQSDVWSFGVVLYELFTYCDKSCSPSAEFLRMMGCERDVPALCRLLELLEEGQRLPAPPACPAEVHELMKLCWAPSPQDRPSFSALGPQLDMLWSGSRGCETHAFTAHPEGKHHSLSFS
The test can be described thus: Inhibition of recombinant human JAK3 (781 to end residues) using GGEEEEYFELVKKKK as substrate measured after 40 mins in presence of [gamm33P]ATP by scintillation counting method.

Test [6] deals with Non-receptor tyrosine-protein kinase TYK2 (Homo sapiens, UniProt P29597). Kind of test: Inhibition of recombinant human TYK2 (875 to end residues) using GGMEDIYFEFMGGKKK as substrate incubated for 40 mins in presence of [gamma33P]ATP by scintillation counting based radiometry assay.
The target of test [7] is Receptor-type tyrosine-protein kinase FLT3 (Homo sapiens, UniProt P36888, D835Y). The test can be described thus: Inhibition of recombinant human FLT3 D835Y mutant (564 to end residues) using EAIYAAPFAKKK as substrate at 40 mins in presence of [gamma-33ATP] by scintillation counting based radiometry assay.
Test [8] in a line: Selectivity index, ratio of IC50 for inhibition of human JAK1 (866 to end residues) to IC50 for inhibition of recombinant human JAK2 (808 to end residues).
Test [9] in a line: Selectivity index, ratio of IC50 for inhibition of recombinant human JAK3 (781 to end residues) to IC50 for inhibition of recombinant human JAK2 (808 to end residues).
The nature of test [10]: Selectivity index, ratio of IC50 for inhibition of recombinant human TYK2 (875 to end residues) to IC50 for inhibition of recombinant human JAK2 (808 to end residues).
The nature of test [11]: Selectivity index, ratio of IC50 for inhibition of recombinant human FLT3 D835Y mutant (564 to end residues) to IC50 for inhibition of recombinant human JAK2 (808 to end residues).
The subject of another test is Vero. Kind of test: Cytotoxicity against African green monkey Vero cells assessed as reduction in cell viability incubated for 72 hrs by MTT assay. It counts as cell-based. The conditions noted are these: Chlorocebus sabaeus.
A short description of test [12]: Cytotoxicity against rat H9c2(2-1) cells assessed as reduction in cell viability incubated for 72 hrs by MTT assay. The test is classed as cell-based. The settings on record: H9c2, 72 h.
For a further test, the system named is L02. The test can be described thus: Cytotoxicity against human L02 cells assessed as reduction in cell viability incubated for 72 hrs by MTT assay. The settings on record: L02, 72 h. The test is classed as cell-based.

The structures appear in SMILES notation.

Non-receptor tyrosine-protein kinase TYK2, sequence (P29597 whole entry): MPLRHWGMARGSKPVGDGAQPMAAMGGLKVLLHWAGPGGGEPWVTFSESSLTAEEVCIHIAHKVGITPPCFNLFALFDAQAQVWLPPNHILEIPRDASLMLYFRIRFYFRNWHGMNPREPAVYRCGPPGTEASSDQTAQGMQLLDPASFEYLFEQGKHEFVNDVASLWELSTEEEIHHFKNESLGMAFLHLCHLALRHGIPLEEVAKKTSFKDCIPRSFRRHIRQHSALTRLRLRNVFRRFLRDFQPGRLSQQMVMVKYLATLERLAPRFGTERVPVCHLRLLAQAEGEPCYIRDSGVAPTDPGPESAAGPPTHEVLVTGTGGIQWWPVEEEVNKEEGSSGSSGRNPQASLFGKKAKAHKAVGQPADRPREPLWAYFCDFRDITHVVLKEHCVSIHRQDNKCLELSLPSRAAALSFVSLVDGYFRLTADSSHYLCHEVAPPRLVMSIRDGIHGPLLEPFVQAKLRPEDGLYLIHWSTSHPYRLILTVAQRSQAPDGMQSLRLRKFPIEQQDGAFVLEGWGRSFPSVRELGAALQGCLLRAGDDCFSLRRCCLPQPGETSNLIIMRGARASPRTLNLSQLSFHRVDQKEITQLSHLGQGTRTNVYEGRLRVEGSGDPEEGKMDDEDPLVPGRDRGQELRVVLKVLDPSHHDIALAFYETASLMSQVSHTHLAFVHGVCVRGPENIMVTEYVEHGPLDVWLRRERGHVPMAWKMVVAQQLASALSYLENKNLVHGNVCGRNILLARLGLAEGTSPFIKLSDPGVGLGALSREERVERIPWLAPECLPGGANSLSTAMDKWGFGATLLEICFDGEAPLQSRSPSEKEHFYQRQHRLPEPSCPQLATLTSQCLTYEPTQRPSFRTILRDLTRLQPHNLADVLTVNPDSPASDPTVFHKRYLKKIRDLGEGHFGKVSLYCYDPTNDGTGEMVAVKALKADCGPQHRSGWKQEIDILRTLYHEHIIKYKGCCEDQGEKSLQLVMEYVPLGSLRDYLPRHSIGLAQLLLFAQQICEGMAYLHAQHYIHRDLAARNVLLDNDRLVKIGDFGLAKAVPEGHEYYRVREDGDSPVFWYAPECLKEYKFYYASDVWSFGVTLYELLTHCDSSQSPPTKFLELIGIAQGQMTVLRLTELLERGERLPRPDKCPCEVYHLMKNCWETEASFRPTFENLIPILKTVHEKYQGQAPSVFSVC
Tyrosine-protein kinase JAK2, sequence (O60674 whole entry): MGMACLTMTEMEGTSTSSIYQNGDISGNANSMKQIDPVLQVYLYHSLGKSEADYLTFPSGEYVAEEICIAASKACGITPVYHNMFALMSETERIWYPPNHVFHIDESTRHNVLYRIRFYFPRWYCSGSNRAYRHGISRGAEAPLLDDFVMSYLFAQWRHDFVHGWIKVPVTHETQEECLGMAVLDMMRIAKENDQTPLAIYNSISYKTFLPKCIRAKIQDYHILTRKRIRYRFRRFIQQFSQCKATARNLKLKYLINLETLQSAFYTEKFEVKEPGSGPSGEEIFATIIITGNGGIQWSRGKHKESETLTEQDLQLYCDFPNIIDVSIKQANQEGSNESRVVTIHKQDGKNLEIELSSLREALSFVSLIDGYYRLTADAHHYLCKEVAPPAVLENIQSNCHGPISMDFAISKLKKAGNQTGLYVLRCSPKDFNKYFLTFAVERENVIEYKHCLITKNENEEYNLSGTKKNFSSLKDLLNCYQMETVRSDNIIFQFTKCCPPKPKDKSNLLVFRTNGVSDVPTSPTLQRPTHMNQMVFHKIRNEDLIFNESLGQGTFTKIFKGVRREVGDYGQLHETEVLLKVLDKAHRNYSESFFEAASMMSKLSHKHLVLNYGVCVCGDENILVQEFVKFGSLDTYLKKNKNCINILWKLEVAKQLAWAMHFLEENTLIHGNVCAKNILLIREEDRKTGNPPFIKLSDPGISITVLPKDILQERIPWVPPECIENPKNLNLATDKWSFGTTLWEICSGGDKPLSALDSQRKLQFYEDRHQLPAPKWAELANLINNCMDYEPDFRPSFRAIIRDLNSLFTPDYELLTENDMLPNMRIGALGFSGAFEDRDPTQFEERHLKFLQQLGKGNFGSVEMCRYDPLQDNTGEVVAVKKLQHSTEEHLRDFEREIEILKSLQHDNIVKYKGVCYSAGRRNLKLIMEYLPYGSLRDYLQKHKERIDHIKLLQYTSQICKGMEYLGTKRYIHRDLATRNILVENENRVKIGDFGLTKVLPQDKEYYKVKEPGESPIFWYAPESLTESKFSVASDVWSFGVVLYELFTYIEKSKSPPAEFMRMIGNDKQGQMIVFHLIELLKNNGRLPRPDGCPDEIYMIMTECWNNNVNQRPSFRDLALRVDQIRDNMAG
Tyrosine-protein kinase JAK1, sequence (P23458 whole entry): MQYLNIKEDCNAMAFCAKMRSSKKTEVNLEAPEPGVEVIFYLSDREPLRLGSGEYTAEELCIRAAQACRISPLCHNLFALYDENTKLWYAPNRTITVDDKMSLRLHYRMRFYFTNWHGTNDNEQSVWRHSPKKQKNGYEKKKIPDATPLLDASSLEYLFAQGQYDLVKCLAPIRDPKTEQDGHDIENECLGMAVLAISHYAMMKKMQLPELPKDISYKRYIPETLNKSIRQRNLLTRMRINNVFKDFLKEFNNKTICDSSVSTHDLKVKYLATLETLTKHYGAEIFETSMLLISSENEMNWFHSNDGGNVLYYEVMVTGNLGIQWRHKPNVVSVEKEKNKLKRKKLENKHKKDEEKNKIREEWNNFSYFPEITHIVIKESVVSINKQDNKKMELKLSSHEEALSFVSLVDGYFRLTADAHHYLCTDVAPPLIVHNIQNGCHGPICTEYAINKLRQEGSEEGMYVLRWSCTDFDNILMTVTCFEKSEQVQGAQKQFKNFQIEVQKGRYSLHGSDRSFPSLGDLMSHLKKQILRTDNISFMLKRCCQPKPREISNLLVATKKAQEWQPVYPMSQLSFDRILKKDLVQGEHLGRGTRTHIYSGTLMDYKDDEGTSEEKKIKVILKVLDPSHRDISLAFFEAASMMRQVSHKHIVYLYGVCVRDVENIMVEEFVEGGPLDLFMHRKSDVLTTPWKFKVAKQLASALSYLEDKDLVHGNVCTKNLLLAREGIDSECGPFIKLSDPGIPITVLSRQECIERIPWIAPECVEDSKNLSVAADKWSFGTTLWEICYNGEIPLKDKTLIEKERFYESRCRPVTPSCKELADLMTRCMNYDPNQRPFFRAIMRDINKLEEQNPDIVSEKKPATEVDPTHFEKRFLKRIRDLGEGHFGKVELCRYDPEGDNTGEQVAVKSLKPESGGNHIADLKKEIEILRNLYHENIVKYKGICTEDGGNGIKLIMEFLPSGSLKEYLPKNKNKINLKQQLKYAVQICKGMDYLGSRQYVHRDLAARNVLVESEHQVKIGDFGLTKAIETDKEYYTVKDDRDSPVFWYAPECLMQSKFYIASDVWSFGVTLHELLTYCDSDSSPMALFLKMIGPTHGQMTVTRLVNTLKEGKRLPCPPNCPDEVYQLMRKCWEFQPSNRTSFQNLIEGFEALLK

The term IC50 denotes the concentration that gives 50% inhibition. `Cc1cnc(Nc2ccc(N3CCC(N(C)CCO)CC3)c(F)c2)nc1-c1cnn(C(C)C)c1`: the Activity in test [1] stood at 5%. For the same molecule, the IC50 in test [2] is 145 nM.
Turning to `N#CC[C@H](C1CCCC1)n1cc(-c2ncnc3[nH]ccc23)cn1` [RUXOLITINIB], the inhibition in vivo at 60 mg/kg in the test on SET-2 stood at 52.8%. For the same molecule, the Activity with BaF3 amounted to 80.4%.
In the case of `Cc1ccc(C(=O)/C=C/C(=O)N2CCc3cc(Nc4ncc(C)c(-c5cnn(C(C)C)c5)n4)ccc3C2)cc1`, the Ratio IC50 in the test filed under Homo sapiens is 51.6; in test [8] it was 20; in test [9], 16.6; in [10] it was 33.3; in test [11] it was 10. In addition, the Activity in [1] was found to be 55%. The IC50 in [3] came to 60 nM; in test [4], 3 nM; in test [5] it was 50 nM; in [6] it was 100 nM; in [7], 30 nM; in the test with Vero it was 1050 nM. The IC50 is 1430 nM in [12] and 2660 nM with L02.
`COC(=O)/C=C/CN1CCc2cc(Nc3ncc(C)c(-c4cnn(C(C)C)c4)n3)ccc2C1`: the Ratio IC50 in the test listed under Homo sapiens amounted to 36.3; in [8], 13; in test [9], 38.5; in test [10] it was 44; in test [11], 11.5. Further, the Activity in [1] was determined as 53%. Further, the IC50 in test [3] worked out at 26 nM; in test [4], 2 nM; in test [5] it was 77 nM; in test [6] it was 88 nM; in test [7], 23 nM; in the test with Vero, 2330 nM. The IC50 was 2890 nM in [12] and 1530 nM in the test on L02.
For `Cc1ccc(C(=O)/C=C/C(=O)N2CCc3ccc(Nc4ncc(C)c(-c5cnn(C(C)C)c5)n4)cc3C2)cc1`, the Activity in [1] is 59%. Moreover, the IC50 was 28 nM in test [5]; 30 nM in test [6]; 18 nM in test [7]; 2470 nM with Vero; 1690 nM in test [12]; 2030 nM in the test with L02.
